According to US8637237B2, “Methods, compositions, and systems for the identification of species-specific or developmental stage-specific insecticides” (The University of North Carolina at Greensboro, priority 2003, dated 2014):
Values joined by “and” are separate entries in the source; they are usually repeats but may differ in a detail not shown here. Equal values may be shown once.

Molecular target: T1, FXR (Rattus norvegicus, UniProt Q62735)
T1 sequence (Q62735 1-469): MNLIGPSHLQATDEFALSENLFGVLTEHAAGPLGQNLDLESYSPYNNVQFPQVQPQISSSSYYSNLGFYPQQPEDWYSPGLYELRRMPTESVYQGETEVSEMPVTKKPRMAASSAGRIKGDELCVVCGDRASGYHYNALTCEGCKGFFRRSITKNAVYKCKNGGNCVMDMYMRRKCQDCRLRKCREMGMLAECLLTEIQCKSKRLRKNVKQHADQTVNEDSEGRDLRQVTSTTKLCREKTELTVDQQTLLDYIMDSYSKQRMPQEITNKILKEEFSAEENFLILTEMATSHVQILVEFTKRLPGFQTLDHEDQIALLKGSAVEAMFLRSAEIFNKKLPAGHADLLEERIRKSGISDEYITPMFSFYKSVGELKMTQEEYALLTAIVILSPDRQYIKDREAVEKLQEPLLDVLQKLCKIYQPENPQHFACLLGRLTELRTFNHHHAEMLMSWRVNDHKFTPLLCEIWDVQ
T1 sequence (P28700 1-467 partner): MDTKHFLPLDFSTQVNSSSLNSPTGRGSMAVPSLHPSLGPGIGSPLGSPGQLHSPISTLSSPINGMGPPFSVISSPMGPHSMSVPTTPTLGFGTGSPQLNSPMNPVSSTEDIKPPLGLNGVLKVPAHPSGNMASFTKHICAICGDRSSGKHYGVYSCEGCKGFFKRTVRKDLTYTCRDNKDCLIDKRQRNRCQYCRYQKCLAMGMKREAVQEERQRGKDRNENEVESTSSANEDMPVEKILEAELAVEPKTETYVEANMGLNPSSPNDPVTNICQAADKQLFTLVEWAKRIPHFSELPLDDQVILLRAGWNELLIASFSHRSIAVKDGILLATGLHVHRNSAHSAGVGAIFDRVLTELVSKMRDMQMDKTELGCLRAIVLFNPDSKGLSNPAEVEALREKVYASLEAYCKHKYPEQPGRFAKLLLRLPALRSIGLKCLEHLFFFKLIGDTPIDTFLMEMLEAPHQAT
Assay: cell-based
Conditions: for FXR-dependent CAT activity, induction: 50 μM
Summary of the method: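 CHO cells co-transfected with FXR, mouse RXRα and a (EcRE)5-ΔMTV-CAT reporter, with β-galactosidase for normalization. An RXR-dependent CRBPII-CAT reporter was run in parallel. Cells were exposed to candidate juvenoids for 24 h; CAT activity normalized to β-gal and expressed as fold induction over vehicle controls.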

[1] = final dose of 50 ∝M, 1 = induction less than 2-fold below cytotoxic doses

Compound | FXR-dependent activity, induction (dose not stated) | FXR-dependent CAT activity, induction | FXR ACTIVITY (fold-induction) [1] | also measured
CC(C)CC[C@@H](O)[C@](C)(O)[C@H]1CC[C@@]2(O)C3=CC(=O)[C@]4(O)C[C@@H](O)[C@@H](O)C[C@]4(C)[C@H]3[C@H](O)C[C@]12C [murA, muristerone A] | unresponsive | – | – | –
CC(C)(O)CC[C@@H](O)[C@](C)(O)[C@H]1CC[C@@]2(O)C3=CC(=O)[C@@H]4C[C@@H](O)[C@@H](O)C[C@]4(C)[C@H]3CC[C@]12C [20E, 20-hydroxyecdysone] | unresponsive | – | – | –
CC(C)=CCCC(C)=CCCC(C)=CC(=O)O [farnesoic acid] | – | 2 fold and 3 fold | 3 fold-induction | –
COC(=O)/C=C(\C)CC/C=C(\C)CCC=C(C)C [methyl farnesoate] | – | 6 fold | – | –
juvocimene | – | – | – | FXR-dependent activity, induction (25 μM): 5 fold; FXR ACTIVITY (fold-induction) (dose 25 μM): 9 fold-induction; RXR mediated transcription, increase (plant-derived JH agonists examined as FXR effectors): 10 fold
COC(=O)/C=C(\C)CC/C=C(\C)CC[C@H]1OC1(C)C [JHIII, juvenile hormone III] | – | – | 20 fold-induction | dose that elicits FXR-dependent activity in the CHO assay: 2 µM; FXR-dependent CAT activity, induction (listed as JH III): 15 fold; FXR-dependent CAT activity, induction (listed as juvenile hormone III): 20 fold
